Results reported in PubChem BioAssay (NCI).
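Assay format: 96-well plates, 48-hour exposure. GI50 marks 50% less growth. TGI marks complete inhibition of growth.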

How the values were obtained:
Assay in all cases: DTP human tumour cell line panel, 48 h
[1] = tested on: LXFL 529 NSCLC
[2] = tested on: M19-MEL melanoma
[3] = tested on: SNB-78 CNS
[4] = tested on: MCF7 breast
[5] = tested on: MDA-MB-435
[6] = tested on: MDA-N
[7] = tested on: NCI/ADR-RES ovarian
[8] = tested on: PC-3 prostate

Compound | GI50 [1] [µM] | TGI [1] [µM] | TGI [2] [µM] | TGI [3] [µM] | GI50 [3] [µM] | TGI [4] [µM] | TGI [5] | TGI [6] | TGI [7] | TGI [8] | GI50 [4] [µM] | GI50 [5] | GI50 [7] | GI50 [8] | GI50 [6]
CC(=O)[CH-]C(C)=O.[CH2-]C.[CH2-]C.[Tl+3] | > 100 | > 100 | – | – | – | – | – | – | – | – | – | – | – | – | –
CC(=O)OC1COC(n2c(=S)n(-c3ccccc3)c(=O)c3cc(Br)ccc32)C(OC(C)=O)C1OC(C)=O (configuration not stated) | – | > 100 | > 100 | > 100 | – | – | – | – | – | – | – | – | – | – | –
COC1OC(C)C(OCc2ccccc2)C(OS(=O)(=O)c2ccc(C)cc2)C1OS(=O)(=O)c1ccc(C)cc1 (configuration not stated) | – | > 100 | > 100 | > 100 | – | – | – | – | – | – | – | – | – | – | –
C#CCC(N)(CO)C(=O)O (configuration not stated) | – | > 100 | > 100 | > 100 | – | – | – | – | – | – | – | – | – | – | –
CC(=O)[O-].CC(=O)[O-].CC(=O)[O-].CC(=O)[O-].[Mo+2].[Mo+2] | > 100 | > 100 | – | > 100 | > 100 | – | – | – | – | – | – | – | – | – | –
OC(c1ccc(Br)cc1)(c1cccs1)C1CC1 (configuration not stated) | – | – | – | – | – | 72.6 | 36.1 µM | 41.8 µM | 60.5 µM | 52.8 µM | – | – | – | – | –
NC(=O)C1(N2CCCCC2)CCN(CCCC(=O)c2ccc(F)cc2)CC1 | – | – | – | – | – | > 100 | 0.396 µM | – | > 100 µM | > 100 µM | 0.108 | 0.07 µM | 29 µM | 2.33 µM | –
OC(CN1CC1)C(O)CN1CC1 (configuration not stated) | – | – | – | – | – | – | > 50 µg/mL | > 50 µg/mL | > 50 µg/mL | > 50 µg/mL | – | > 50 µg/mL | > 50 µg/mL | > 50 µg/mL | > 50 µg/mL
COc1ccc(Nc2nc3ccccc3nc2-c2cccs2)cc1 | – | > 100 | – | > 100 | – | – | – | – | – | – | – | – | – | – | –
O=C(c1ccc2ccccc2c1)c1c(C(F)(F)F)n([O-])c2ccc(Cl)cc2[n+]1=O | – | – | – | – | – | 1.43 | 3.17 µM | – | 3.86 µM | – | 0.417 | 1.66 µM | 1.89 µM | – | –
C=CCSc1nc2ccccc2c(=O)n1Cc1ccco1 | – | – | – | – | – | > 100 | > 100 µM | > 100 µM | > 100 µM | > 100 µM | – | – | – | – | –
Cn1c2ccccc2c2c(=O)c3ccccc3[nH]c21 | – | – | – | – | – | > 100 | > 100 µM | – | > 100 µM | 73.2 µM | 30.3 | 70.2 µM | 43.7 µM | 27.5 µM | –
COCCOCCOCc1n(Cc2ccc3ccccc3n2)c2ccccc2[n+]1Cc1ccc2ccccc2c1 | – | – | – | – | – | 1.34 | 1.31 µM | – | > 100 µM | 2.29 µM | 0.317 | 0.339 µM | 23.4 µM | 0.352 µM | –
O=C1c2cccnc2-c2nc(-c3ccncc3)cc3c2c1nc1ccccc13 | – | – | – | – | – | 23.5 | 30.1 µM | 35.9 µM | 24.8 µM | 61.9 µM | 11.4 | 15.5 µM | 9.63 µM | 16.1 µM | 19.9 µM
Cn1c([N+](=O)[O-])cnc1/C=C1\Oc2cc(Cl)ccc2C1=O | – | – | – | – | – | 13.3 | 1.05 µM | – | > 100 µM | > 24.1 µM | 0.712 | 0.26 µM | 0.884 µM | 1.36 µM | –
O=C1C(SCCO)=C(SCCO)C(=O)c2ccccc21 | – | – | – | – | – | 2.36 | 0.348 µM | 0.314 µM | 2.53 µM | 6.1 µM | – | – | – | – | –
O=S1(=O)NCCCN1CCNc1nccc(-c2c(-c3cccc(O)c3)nc3sccn23)n1 | – | – | – | – | – | > 100 | > 100 µM | – | > 100 µM | > 100 µM | 29.5 | 0.563 µM | > 100 µM | 45 µM | –
C=C(CN1CCc2ccccc2C1)c1ccc(C(=O)Nc2ccccc2N)cc1 | – | – | – | – | – | > 31.6 | 4.23 µM | – | > 9.95 µM | > 50 µM | 2.08 | 1.47 µM | 1.11 µM | 2.01 µM | –
CCOC(=O)C(=O)Nc1ccccc1C(F)(F)F | – | > 100 | – | > 100 | – | – | – | – | – | – | – | – | – | – | –
C[C@H]1[C@H](C)CC[C@]2(C(=O)NCCNCCN)CC[C@]3(C)C(=CC[C@@H]4[C@@]5(C)CCC(=O)C(C)(C)[C@@H]5CC[C@]43C)[C@H]12 | – | – | – | – | – | 3.25 | 3.23 µM | – | 20 µM | 3.81 µM | 1.7 | 1.73 µM | 5.16 µM | 1.74 µM | –
CCCCCCCCCCCCCCCCCCNC(=O)[C@H]1CSC(c2cccs2)N1 (some centres not stated) | – | – | – | – | – | 1.58 | 1.53 µM | – | 2.31 µM | > 50 µM | 0.764 | 0.77 µM | 1.06 µM | 1.75 µM | –
O=C1C=C(O)c2[nH]c(=O)ccc2C1=O | – | – | > 100 | > 100 | – | – | – | – | – | – | – | – | – | – | –
O=C(/C=C/c1ccccc1)CC(c1ccccc1)N1CCOCC1 (configuration not stated) | – | – | – | – | – | 80.3 | 4.58 µM | – | 16.3 µM | 19.1 µM | 4.68 | 1.91 µM | 3.37 µM | 4.54 µM | –
CCC(=C(c1ccc(OCCCN(C)C)cc1)c1ccc(OCCCN(C)C)cc1)c1ccc(Cl)cc1 | – | – | – | – | – | 0.524 | 0.556 µM | – | 4.14 µM | 3.39 µM | 0.216 | 0.292 µM | 1.95 µM | 1.09 µM | –
C[C@H](Cn1ncnn1)Nc1ncc2cc(Oc3ccc(F)cc3F)c(=O)n(C)c2n1 | – | – | – | – | – | > 25 | > 25 µM | – | > 25 µM | > 25 µM | > 25 | > 25 µM | > 25 µM | > 25 µM | –
CN(C)Cc1c[nH]c2c(NCCN)c3c(c(NCCN)c12)C(=O)c1ccccc1C3=O | – | – | – | – | – | 94.1 | 5.2 µM | – | > 66.1 µM | 8.42 µM | 19 | 1.88 µM | 21.8 µM | 2.34 µM | –
Cn1cc(-c2csc(-c3cn(C)c4ccccc34)n2)c2cnccc21 | – | – | – | – | – | 1.66 | 3.24 µM | – | 4.32 µM | 2.99 µM | 0.324 | 1.77 µM | 1.83 µM | 1.47 µM | –
c1ccc2nc3c(cc4ccccn43)nc2c1 | – | – | – | – | – | > 100 | > 100 µM | – | > 100 µM | > 100 µM | > 100 | > 100 µM | > 100 µM | 63.7 µM | –
